Laboratory results as given in ChEMBL document CHEMBL3885861, “Open TG-GATES”.

Species on record: Rattus norvegicus
Experiment: Open TG-GATES - Regimen: Single
Type: toxicity, organism-based, Sprague-Dawley
Parameters: regimen Single, gender Male, age 6 weeks
Conditions: in vivo, po, 150 mg/kg, route gavage, dose level High; for APTT / Bas / Eos / Fbg / Hb / Ht / Lym / MCH / MCHC / MCV / Mono / Neu / PT / Plat / RBC / Ret / WBC: tissue Blood; for KIDNEY_L / KIDNEY_R / KIDNEY_TOTAL: tissue Kidney; for LIVER: tissue Liver; for A/G / ALP / ALT / AST / BUN / CRE / Ca / Cl / DBIL / GLC / IP / K / LDH / Na / PL / RALB / TBIL / TC / TG / TP / gamma-GTP: tissue Plasma

For `CC(C)C(=O)Nc1ccc([N+](=O)[O-])c(C(F)(F)F)c1` [FLUTAMIDE], the TERMINAL_BW (3 h) was 210.6 g, the APTT (3 h) was 19.7 s and the Bas (3 h) was 0%. For the same compound, the Eos (3 h) was 0.8%, the Fbg (3 h) was 220.4 mg/dL and the Hb (3 h) was 13.3 g/dL. The Ht (3 h) was 38.7%, the Lym (3 h) was 75% and the MCH (3 h) was 21.5 pg. For the same compound, the MCHC (3 h) was 34.4%, the MCV (3 h) was 62.6 fL and the Mono (3 h) was 3.6%. It also gave a Neu (3 h) of 19.8%, a PT (3 h) of 13 s and a Plat (3 h) of 121.6 x10_4/uL. For the same compound, the RBC (3 h) was 617.2 x10_4/ul, the Ret (3 h) was 7.5% and the WBC (3 h) was 89.1 x10_2/uL. It also gave a KIDNEY_L (3 h) of 0.9 g, a KIDNEY_R (3 h) of 0.9 g and a KIDNEY_TOTAL (3 h) of 1.8 g. For the same compound, the LIVER (3 h) was 9.3 g, the A/G (3 h) was 1.4 and the ALP (3 h) was 936.4 IU/L. It also gave an ALT (3 h) of 35.4 IU/L, an AST (3 h) of 69.8 IU/L and a BUN (3 h) of 9.4 mg/dL. It also gave a CRE (3 h) of 0.4 mg/dL, a Ca (3 h) of 10.6 mg/dL and a Cl (3 h) of 102.8 meq/L. The DBIL (3 h) was 0.1 mg/dL, the GLC (3 h) was 212.8 mg/dL and the IP (3 h) was 9.6 mg/dL. For the same compound, the K (3 h) was 3.7 meq/L, the LDH (3 h) was 158.4 IU/L and the Na (3 h) was 140.8 meq/L. For the same compound, the PL (3 h) was 152 mg/dL, the RALB (3 h) was 3.4 g/dL and the TBIL (3 h) was 0.2 mg/dL. For the same compound, the TC (3 h) was 78 mg/dL, the TG (3 h) was 77.4 mg/dL and the TP (3 h) was 5.7 g/dL. It also gave a gamma-GTP (3 h) of 1.4 IU/L, a TERMINAL_BW (6 h) of 207.7 g and an APTT (6 h) of 18.6 s. For the same compound, the Bas (6 h) was 0%, the Eos (6 h) was 0.6% and the Fbg (6 h) was 213 mg/dL. For the same compound, the Hb (6 h) was 13.4 g/dL, the Ht (6 h) was 38.9% and the Lym (6 h) was 79.6%. The MCH (6 h) was 21.3 pg, the MCHC (6 h) was 34.4% and the MCV (6 h) was 62.1 fL. It also gave a Mono (6 h) of 1.4%, a Neu (6 h) of 17.8% and a PT (6 h) of 12.7 s. The Plat (6 h) was 127.8 x10_4/uL, the RBC (6 h) was 626.6 x10_4/ul and the Ret (6 h) was 7.3%. For the same compound, the WBC (6 h) was 62.5 x10_2/uL, the KIDNEY_L (6 h) was 0.9 g and the KIDNEY_R (6 h) was 0.9 g. It also gave a KIDNEY_TOTAL (6 h) of 1.9 g, an LIVER (6 h) of 9.2 g and an A/G (6 h) of 1.6. For the same compound, the ALP (6 h) was 813 IU/L, the ALT (6 h) was 32.4 IU/L and the AST (6 h) was 63.8 IU/L. The BUN (6 h) was 11.2 mg/dL, the CRE (6 h) was 0.3 mg/dL and the Ca (6 h) was 10.8 mg/dL. The Cl (6 h) was 99.2 meq/L, the DBIL (6 h) was 0.08 mg/dL and the GLC (6 h) was 238.4 mg/dL. It also gave an IP (6 h) of 9.7 mg/dL, a K (6 h) of 3.8 meq/L and an LDH (6 h) of 132.6 IU/L. The Na (6 h) was 139.2 meq/L, the PL (6 h) was 148.6 mg/dL and the RALB (6 h) was 3.5 g/dL. The TBIL (6 h) was 0.1 mg/dL, the TC (6 h) was 84.4 mg/dL and the TG (6 h) was 33.2 mg/dL. The TP (6 h) was 5.7 g/dL, the gamma-GTP (6 h) was 1 IU/L and the TERMINAL_BW (9 h) was 207.4 g. For the same compound, the APTT (9 h) was 19.7 s, the Bas (9 h) was 0% and the Eos (9 h) was 0.8%. The Fbg (9 h) was 223.8 mg/dL, the Hb (9 h) was 13.1 g/dL and the Ht (9 h) was 38.5%. The Lym (9 h) was 77.4%, the MCH (9 h) was 21.6 pg and the MCHC (9 h) was 34%. For the same compound, the MCV (9 h) was 63.5 fL, the Mono (9 h) was 3.8% and the Neu (9 h) was 17%. It also gave a PT (9 h) of 12.8 s, a Plat (9 h) of 127.2 x10_4/uL and an RBC (9 h) of 605.6 x10_4/ul. It also gave a Ret (9 h) of 7.7%, a WBC (9 h) of 69.1 x10_2/uL and a KIDNEY_L (9 h) of 0.9 g. The KIDNEY_R (9 h) was 0.9 g, the KIDNEY_TOTAL (9 h) was 1.8 g and the LIVER (9 h) was 8.7 g. It also gave an A/G (9 h) of 1.6, an ALP (9 h) of 711.8 IU/L and an ALT (9 h) of 29.2 IU/L. For the same compound, the AST (9 h) was 57.6 IU/L, the BUN (9 h) was 10.2 mg/dL and the CRE (9 h) was 0.4 mg/dL. The Ca (9 h) was 10.5 mg/dL, the Cl (9 h) was 102.8 meq/L and the DBIL (9 h) was 0.07 mg/dL. For the same compound, the GLC (9 h) was 220.6 mg/dL, the IP (9 h) was 9.1 mg/dL and the K (9 h) was 3.8 meq/L. The LDH (9 h) was 149.4 IU/L, the Na (9 h) was 139.8 meq/L and the PL (9 h) was 165.4 mg/dL. It also gave an RALB (9 h) of 3.4 g/dL, a TBIL (9 h) of 0.1 mg/dL and a TC (9 h) of 89.6 mg/dL. For the same compound, the TG (9 h) was 73 mg/dL, the TP (9 h) was 5.7 g/dL and the gamma-GTP (9 h) was 0.8 IU/L. The TERMINAL_BW (24 h) was 213.1 g, the APTT (24 h) was 17.7 s and the Bas (24 h) was 0%. It also gave an Eos (24 h) of 1%, a Fbg (24 h) of 218 mg/dL and a Hb (24 h) of 13.1 g/dL. For the same compound, the Ht (24 h) was 39.3%, the Lym (24 h) was 82.4% and the MCH (24 h) was 21.6 pg. For the same compound, the MCHC (24 h) was 33.3%, the MCV (24 h) was 65 fL and the Mono (24 h) was 2.2%. It also gave a Neu (24 h) of 13.6%, a PT (24 h) of 12.8 s and a Plat (24 h) of 129.1 x10_4/uL. The RBC (24 h) was 605.4 x10_4/ul, the Ret (24 h) was 6.8% and the WBC (24 h) was 77.2 x10_2/uL. The KIDNEY_L (24 h) was 1 g, the KIDNEY_R (24 h) was 0.9 g and the KIDNEY_TOTAL (24 h) was 1.9 g. It also gave an LIVER (24 h) of 9.9 g, an A/G (24 h) of 1.4 and an ALP (24 h) of 990.6 IU/L. For the same compound, the ALT (24 h) was 32.6 IU/L, the AST (24 h) was 69.6 IU/L and the BUN (24 h) was 12.2 mg/dL. For the same compound, the CRE (24 h) was 0.4 mg/dL, the Ca (24 h) was 10.5 mg/dL and the Cl (24 h) was 104.4 meq/L. The DBIL (24 h) was 0.082 mg/dL, the GLC (24 h) was 213 mg/dL and the IP (24 h) was 7.5 mg/dL. For the same compound, the K (24 h) was 3.8 meq/L, the LDH (24 h) was 145.4 IU/L and the Na (24 h) was 141.2 meq/L. The PL (24 h) was 175.8 mg/dL, the RALB (24 h) was 3.3 g/dL and the TBIL (24 h) was 0.1 mg/dL. For the same compound, the TC (24 h) was 107.4 mg/dL, the TG (24 h) was 57.4 mg/dL and the TP (24 h) was 5.7 g/dL. The gamma-GTP (24 h) was 0.8 IU/L.
